Assay results taken from EP1066315B1 (University of Dundee, priority 1998, dated 2008).
Residues, ends and D or L forms follow the SMILES beside them. *: point of attachment. Fmoc = O=C(OCC1c2ccccc2-c2ccccc21)*; Cbz = O=C(OCc1ccccc1)*; CHN2 = [N-]=[N+]=C*

Assays:
[1] = test system: purified AEP (legumain from pig kidney); experiment: Digestion of TTCF with purified AEP in the presence of tetrapeptides; assay type: biochemical; conditions: 0.2 mg/ml peptide; Fig 3a
Description: The invention will now be described by reference to the following Examples and Figures wherein • Figure 1: Processing of TTCF by a leupeptin-insensitive cysteine endopeptidase activity. (a) TTCF was digested in vitro in the presence of disrupted lysosomes (1-2 µg) in the presence or absence of iodoacetamide (1 mM), leupeptin, E64 or pepstatin (each at 0.1 mg/ml). Digestions were in 0.1 M NH4 acetate at pH 4.5 or Na2HPO4, pH 6.0 or 7.0. After 4 hours at 37°C, the reactions were separated by Tris-tricine SDS-PAGE and stained with Coomassie Blue. (b) Cleavage sites: TTCF digestion products were separated by SDS PAGE and electrophoretically transferred to nitrocellulose membrane. Individual fragments numbered 1-6 were subjected to 5 cycles of Edman degradation. N-terminal sequence obtained is shown in bold following upstream residues from TTCF (tetanus toxin numbering). The N-terminal sequence of His-tagged TTCF was obtained for fragments 1 and 3. (c) Residues Asn 1184 and Glu 1184 in TTCF were mutated to alanine (see Methods) and digestions performed as before. The mutation abolishes cleavage at the mutated site but not at the first site (doublet at 47 kD). In this experiment cleavage of the third site was minimal. • Figure 2: TTCF is processed by an asparaginyl endopeptidase. (a) Chromatography of the TTCF processing activity on Mono-S resin. Fractions eluted by NaCl gradient were incubated with the substrates Z-Ala-Ala-Asn-NHMec or Z-Phe-Arg-NHMec in the presence or absence of E64 (trans-epoxysuccinyl-L-leucylamido-(4-guanidino)butane). […] (b) Fractions as above were incubated with 10 µg TTCF in the presence or absence of E64 for 4 hours at 37°C prior to SDS-PAGE analysis. (c) Each fraction was analysed by SDS-PAGE and Western blotting. Electrophoretically transferred material was probed with an affinity purified antiserum raised against the peptide KGIGSGKVLKSGPQC from human legumain^1. • Figure 3: Peptide inhibitors of AEP block asparaginyl endopeptidase activity and TTCF processing in vitro and in vivo. […] Release of 7-amino-4-methyl coumarin was measured after 10, 20 or 30 minutes. […] At different times the cells were washed, fixed in 0.05 % glutaraldehyde and antigen presentation measured using proliferation of different autologous TTCF-specific T cell clones. c, AEP pre-processing of TTCF speeds antigen presentation. […] Presentation was measured after 60 minutes of antigen pulsing using EBV B cells.
We decided to test the possibility that high concentrations of asparagine containing peptides might act as competitive inhibitors. […] To establish that inhibition of AEP was specific, we measured the hydrolysis of different synthetic peptide substrates in the presence and absence of these tetrapeptides.

[2] = molecular target: T1, disrupted lysosomes isolated from the human B cell line EDR (TTCF processing activity) (Homo sapiens, UniProt Q99538); experiment: Digestion of TTCF by disrupted B cell lysosomes, SDS-PAGE readout; assay type: biochemical; conditions: data not shown; for effect on lysosomal TTCF digestion activity: concentration not given
T1 construct: disrupted lysosomes isolated from the human B cell line EDR; endogenous in cells; host or cells: human B cell line EDR, Percoll-gradient lysosomal fraction, disrupted
T1 sequence (Q99538 26-323 limits assumed): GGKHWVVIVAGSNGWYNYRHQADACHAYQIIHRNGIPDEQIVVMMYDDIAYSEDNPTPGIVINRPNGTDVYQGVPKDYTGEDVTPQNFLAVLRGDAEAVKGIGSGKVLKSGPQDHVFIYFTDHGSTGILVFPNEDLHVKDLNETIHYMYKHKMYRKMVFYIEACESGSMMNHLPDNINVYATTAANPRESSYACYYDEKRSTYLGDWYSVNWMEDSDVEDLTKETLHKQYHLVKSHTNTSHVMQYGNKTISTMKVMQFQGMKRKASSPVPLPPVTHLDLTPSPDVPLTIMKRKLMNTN
Description: The invention will now be described by reference to the following Examples and Figures wherein • Figure 1: Processing of TTCF by a leupeptin-insensitive cysteine endopeptidase activity. (a) TTCF was digested in vitro in the presence of disrupted lysosomes (1-2 µg) in the presence or absence of iodoacetamide (1 mM), leupeptin, E64 or pepstatin (each at 0.1 mg/ml). Digestions were in 0.1 M NH4 acetate at pH 4.5 or Na2HPO4, pH 6.0 or 7.0. After 4 hours at 37°C, the reactions were separated by Tris-tricine SDS-PAGE and stained with Coomassie Blue. (b) Cleavage sites: TTCF digestion products were separated by SDS PAGE and electrophoretically transferred to nitrocellulose membrane. Individual fragments numbered 1-6 were subjected to 5 cycles of Edman degradation. N-terminal sequence obtained is shown in bold following upstream residues from TTCF (tetanus toxin numbering). The N-terminal sequence of His-tagged TTCF was obtained for fragments 1 and 3. (c) Residues Asn 1184 and Glu 1184 in TTCF were mutated to alanine (see Methods) and digestions performed as before. The mutation abolishes cleavage at the mutated site but not at the first site (doublet at 47 kD). In this experiment cleavage of the third site was minimal. • Figure 2: TTCF is processed by an asparaginyl endopeptidase. (a) Chromatography of the TTCF processing activity on Mono-S resin. Fractions eluted by NaCl gradient were incubated with the substrates Z-Ala-Ala-Asn-NHMec or Z-Phe-Arg-NHMec in the presence or absence of E64 (trans-epoxysuccinyl-L-leucylamido-(4-guanidino)butane). […] (b) Fractions as above were incubated with 10 µg TTCF in the presence or absence of E64 for 4 hours at 37°C prior to SDS-PAGE analysis. (c) Each fraction was analysed by SDS-PAGE and Western blotting. Electrophoretically transferred material was probed with an affinity purified antiserum raised against the peptide KGIGSGKVLKSGPQC from human legumain^1. • Figure 3: Peptide inhibitors of AEP block asparaginyl endopeptidase activity and TTCF processing in vitro and in vivo. (a) TTCF was digested with purified AEP (legumain from pig kidney) in the presence or absence of 0.2 mg/ml of the peptides indicated. […] (b) Purified AEP or a crude lysosomal protease mixture were incubated with Z-Ala-Ala-Asn-NHMec, Z-Phe-Arg-NHMec (cathepsins L&B) or Z-Val-Val-Ala NHMec (cathepsin S) in the presence of increasing concentrations of AENK or AEQK. Release of 7-amino-4-methyl coumarin was measured after 10, 20 or 30 minutes. […] At different times the cells were washed, fixed in 0.05 % glutaraldehyde and co-cultured with autologous TTCF specific T cell clones. […] Proteins obtained from commercial sources, as described in the literature or custom peptides were digested with purified pig kidney legumain at pH 5.5 in the presence of 1 mM DTT. […] When present peptide was maintained during antigen pulsing at 1 mg/ml (a) or 2 mg/ml (b). At different times the cells were washed, fixed in 0.05 % glutaraldehyde and antigen presentation measured using proliferation of different autologous TTCF-specific T cell clones. c, AEP pre-processing of TTCF speeds antigen presentation. […] Presentation was measured after 60 minutes of antigen pulsing using EBV B cells.
[…]. […] Nor could we reproduce the lysosomal TTCF digestion pattern or indeed generate any of these fragments using purified cathepsins L, S, B, D or E , all of which have been implicated in the class II MHC antigen processing pathway (reviewed in refs 5 & 6).
TTCF processing activity. Lysosomal fractions from the human B cell line EDR were prepared on 27 % Percoll density gradients as previously described^8 using ^125I-labelled transferrin (internalised for 30 minutes at 37°C) and β-hexosaminidase to identify endosomal/plasma membrane and lysosomal fractions respectively. The peak of lysosomes was collected by centrifugation at 40,000 g for 1 hour, removed from the underlying Percoll pellet, collected again at 50,000 g for 1 hour and stored frozen. […]

| Structure (SMILES) | effect on lysosomal TTCF digestion activity [2] | also measured |
| --- | --- | --- |
| NCCCC[C@H](NC(=O)OCC1c2ccccc2-c2ccccc21)C(=O)N[C@@H](CCC(N)=O)C(=O)N[C@@H](CCC(N)=O)C(=O)N[C@@H](CCC(=O)O)C(N)=O [KQQE] (Fmoc-KQQE-NH2) |  | inhibition of processing of TTCF by AEP [1]: did not inhibit |
| CC(C)C[C@H](NC(=O)N1CCOCC1)C(=O)N[C@H](/C=C/S(=O)(=O)c1ccccc1)CCc1ccccc1 [LHVS] | without effect |  |
| CCN1C(=O)C=CC1=O [N-ethyl maleimide] | sensitive |  |
| [N-]=[N+]=CC(=O)[C@H](Cc1ccccc1)NC(=O)[C@H](Cc1ccccc1)NC(=O)OCc1ccccc1 [Z-Phe-Phe-CHN2] (Cbz-Phe-Phe-CHN2) |  | sensitivity of lysosomal TTCF digestion activity to inhibitor ([2]; high concentrations): sensitive |
